We go through one compound from patent EP0162545A2, “Enhanced bioconversion processes” (BETZ EUROPE, INC., priority 1984, dated 1985).

Holding throughout (format): cell-based
The subject of one data set is Klebsiella pneumoniae. The data set can be described thus: microbe, parasite or virus in culture. How it is done:
The first series of experiments involved the measurement of the amount of C02 evolved from aerobically growing cultures of the representative organism Klebsiella in the presence and absence of uncoupling agents. The known uncouplers 2, 4 dinitrophenol (DNP) and carbonyl cyanide m-chlorophenyl hydrazone (CCCP) were tested along with bis (tricholoromethyl) sulfone (TCMS) and beta-bromo-beta-nitrostyrene (BNS). It can be seen from the data that CCCP caused large increases in C02 evolution over the untreated controls at all concentrations used, with the largest increase (29%) at 5 µg/mL (24.4 uM). […] Bacterial counts also reflected the lack of uncoupling activity. […] Largest increase in C02 blowoff came at 50 ppm (32%). BNS gave a mixed pattern as opposed to those of DNP and CCCP. […] Even at 10 µg/mL, the bacterial count was reduced ~ 50% while still giving greater C02 blowoff than control cultures.
The procedure utilized to perform the first series of experiments was as follows: • Sealed vials containing 8 mL of minimal salts medium (Composition: K2HPO4-39, KH2PO4-lg, MgSO4-0.2g, (NN4)2SO4^-1g, D-glucose-5g (optional) in 1 liter. Autoclave and adjust pH to 6.8) lacking any carbon source were each injected with 1 mL of a suspension of Klebsiella pneumoniae. (Klebsiella was grown overnight, shaken at 37°C, in minimal salts medium containing glucose to a heavy cell suspension. The cells were centrifuged at 10,000 g and resuspended to a turbidity of 150 Klett units [Klett-Summerson photometer, #42 blue filter) in minimal salts medium [MSM], no glucose. These cells were again centrifuged, and resuspended in MSM at 1/10 the volume used previously. This 10X cell suspension was used as the standard inoculum for the vials.) The vials were- simultaneously injected with 1 mL of a 1 µ Ci/mL solution of ^14C-U-D glucose and the appropriate concentration of material to be tested. The compounds tested were fed at concentrations of […]. Controls received no test material and all vials were shaken during the course of the experiments at 37°C. Vials were read for C02 blowoff at the times indicated on the appropriate Tables. Standard bacterial counts were done on each vial after the end of each experimental series. [formula] [formula] [formula] [formula]

The test system of data set [1] is Klebsiella. The data set can be described thus: microbe, parasite or virus in culture. As for the experimental part: These patterns were the results of Klebsiella cultures having been grown on glucose (^14C-label). In nature, and in waste treatment facilities, many organic carbon compounds, both simple and complex, would be available for degradation. The known uncouplers and BNS were tested for their ability to increase C02 evolution from cultures exposed to the common substrates lactate, glycine, glycerol, and a denatured protein mixture. […] This was expected in the case of glycine but it was thought that a more complex protein might be degraded and portions used for some energyproduction. It was hoped that these compounds might be a more representative group (more abundant in waste treatment) than simple sugars for determining the extent of activity of BNS. […] Lactate, a common intermediate in microbial metabolism, and a compound which would normally be used as an oxidizable substrate for running the cytochrome chain, gave a more representative response. BNS treated cultures gave increased C02 blowoff (an increase as high as 130% at 5 µg/mL) as did both known uncouplers. […] When glycerol was used as the labeled substrate, BNS treated cultures gave increased C02 at concentrations up to 5 µg/mL.
The procedure used for determining the CO2 evolution was similar to the procedure described previously. Cells having been grown overnight in MSM and glucose were centrifuged and resuspended in MSM + glucose (cold) and used as inoculum. No other cold carbon source (unlabeled) was added. ^14C-labeled substrates (lactate, glycerol, etc.) obtained from New England Nuclear were used and supplied the radiolabeled carbon for the detection of ^14CO2. BNS was utilized in concentrations of 0.5 - 10 µg/mL. Fixed concentrations of 5 µg/mL CCCP and DNP were included for comparative purposes. The following data were obtained in these experiments.

Data set [2] relates to Klebsiella. How it is done:
Experiments to look at the above conclusions in depth were performed. In these experiments, cultures of Klebsiella were challenged with various concentrations of BNS and the effects on C02 evolution from glucose, viability, TOC (Total Organic Carbon), TIC (Total Inorganic Carbon) production, removal, and DO (Dissolved Oxygen) removal were determined. Concentrations of BNS from 0.05 to 100 µg/mL were used. […] CO2 evolution decreased after 5 gg/mL. […] The viability dropped off after that with 99% inhibition at concentrations somewhere between 10 - 20 µg/mL. Organic carbon removal gave the most puzzling pattern. […] CO2 was produced, however, as reflected by the C02 blowoff experiments and the TIC data. The organic carbon being oxidized (removed) must have been cancelled out by an organic carbon addition caused by limited bacterial lysis. This phenomenon was investigated again. […] It appeared that 5 ppm BNS would be the maximum concentration that could be used for the desired effect, with the majority of favorable results occurring in the 0.05 - 2 ppm range.
At 0.05 µg/mL level, TOC removal was equivalent to the untreated control. When BNS concentrations of 0.5 µg/mL were used, TOC removal ceased and in the second series of experiments, TOC levels increased sharply at 0.5 - 2 µg/mL concentrations of BNS. Similar results were obtained when BNS was used to treat bacteria growing in the glucose salts medium. No increases in TOC removal were seen. The TOC concentration increased rapidly at BNS concentration of 0.5 - 2 ppm only to fall back to control levels at 5 ppm. The cells then added TOC to the medium again from 5 - 1000 µg/mL concentrations of BNS. […]
The experiments coordinating the measurements of C02 evolution, TOC reduction, viable count, and dissolved oxygen (DO) reduction were performed as follows: C02 evolution by Klebsiella was measured as described previously using a narrowed set of BNS concentrations. […] These cells were used to inoculate 19 mL quantities of fresh nutrient broth (1 mL inoculum) in baffled shake flasks. […]

Molecules are shown by their SMILES.

`O=[N+]([O-])C(Br)=Cc1ccccc1` [BNS, beta-bromo-beta-nitrostyrene]: in the data set on Klebsiella pneumoniae, the “concentrations at which toxic properties become evident” value was over 5000 ng/mL. In addition, the activation at 1 µg/mL with Klebsiella pneumoniae (Klebsiella pneumoniae, 1.0 µ/mL, 14C-glucose, read-out: largest increase in C02 blowoff) turned out to be 13%. For the same compound, the activation at 5 µg/mL with Klebsiella [1] (Klebsiella, 14C-lactate as labeled substrate, 5 µg/mL, read-out: increase in C02 blowoff) was 130%. Moreover, the “concentrations giving increased C02” value in the data set on Klebsiella [1] (glycerol as the labeled substrate) was “up to 5 µg/mL”. Besides, the “effect on CO2 evolution” value in the data set with Klebsiella [1] (glycine as the labeled substrate) is “either no effect or a toxic effect”. In the data set with Klebsiella [2], the “concentration for 99% inhibition of viability” value fell in the range of 10000 to 20000 ng/mL, the “concentrations at which cells retained viability equal to the control level” value is “up to 2 µg/mL” and the “concentrations of significant toxicity” value lay in the range of 5000 to 10000 ng/mL.
